Reference: PubChem BioAssay (NCI)
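Test compounds were applied to cells in 96-well plates for 48 hours at 5 doses. TGI marks complete inhibition of growth.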

Experiments:
Assay in all cases: NCI-60 cell line screen, 48 h
MOLT-4 leukemia = test system: MOLT-4 leukemia
DLD-1 colon = test system: DLD-1 colon
HCT-15 colon = test system: HCT-15 colon
IGROV1 ovarian = test system: IGROV1 ovarian
HL-60(TB) leukemia = test system: HL-60(TB) leukemia
SF-295 CNS = test system: SF-295 CNS
XF 498 CNS = test system: XF 498 CNS
COLO 205 colon = test system: COLO 205 colon
LOX IMVI melanoma = test system: LOX IMVI melanoma
K-562 leukemia = test system: K-562 leukemia
SN12C renal = test system: SN12C renal
NCI-H460 lung = test system: NCI-H460 lung
SW-620 colon = test system: SW-620 colon
U251 CNS = test system: U251 CNS
SK-MEL-2 melanoma = test system: SK-MEL-2 melanoma
OVCAR-4 ovarian = test system: OVCAR-4 ovarian
UACC-62 melanoma = test system: UACC-62 melanoma
SF-539 CNS = test system: SF-539 CNS
DMS 114 small cell lung = test system: DMS 114 small cell lung
786-0 renal = test system: 786-0 renal
SK-MEL-5 melanoma = test system: SK-MEL-5 melanoma
NCI-H522 lung = test system: NCI-H522 lung
ACHN renal = test system: ACHN renal
SK-MEL-28 melanoma = test system: SK-MEL-28 melanoma
OVCAR-8 ovarian = test system: OVCAR-8 ovarian
CAKI-1 renal = test system: CAKI-1 renal
RPMI-8226 leukemia = test system: RPMI-8226 leukemia
SF-268 CNS = test system: SF-268 CNS
MALME-3M melanoma = test system: MALME-3M melanoma
M14 melanoma = test system: M14 melanoma
KM12 colon = test system: KM12 colon
HOP-62 NSCLC = test system: HOP-62 NSCLC
M19-MEL melanoma = test system: M19-MEL melanoma
SNB-19 CNS = test system: SNB-19 CNS
HCC-2998 colon = test system: HCC-2998 colon
A549 NSCLC = test system: A549 NSCLC
NCI-H23 lung = test system: NCI-H23 lung
UO-31 renal = test system: UO-31 renal
EKVX NSCLC = test system: EKVX NSCLC
SK-OV-3 ovarian = test system: SK-OV-3 ovarian
NCI-H226 lung = test system: NCI-H226 lung
DMS 273 small cell lung = test system: DMS 273 small cell lung
A498 renal = test system: A498 renal
OVCAR-3 ovarian = test system: OVCAR-3 ovarian
CCRF-CEM leukemia = test system: CCRF-CEM leukemia
UACC-257 melanoma = test system: UACC-257 melanoma
LXFL 529 NSCLC = test system: LXFL 529 NSCLC
HT29 colon = test system: HT29 colon
HCT-116 colon = test system: HCT-116 colon
KM20L2 colon = test system: KM20L2 colon
RXF 393 renal = test system: RXF 393 renal
OVCAR-5 ovarian = test system: OVCAR-5 ovarian
HOP-92 NSCLC = test system: HOP-92 NSCLC
TK-10 renal = test system: TK-10 renal
SNB-78 CNS = test system: SNB-78 CNS
SNB-75 CNS = test system: SNB-75 CNS
SR leukemia = test system: SR leukemia

Measured: TGI

CCOC(=O)CC[C@H](NC(=O)c1[nH]cnc1/N=N/N(C)C)C(=O)OCC
not listed: KM20L2 colon | RXF 393 renal | OVCAR-5 ovarian | HOP-92 NSCLC | TK-10 renal | SNB-78 CNS | SNB-75 CNS | SR leukemia
> 100 µM: all other assays above

Clc1ccc(-c2nnc3c4nnc(-c5ccc(Cl)cc5Cl)n4c4ccccc4n23)c(Cl)c1
63.2 µM: SNB-75 CNS
not listed: HL-60(TB) leukemia | NCI-H226 lung | SR leukemia
> 100 µM: all other assays above

O=c1[nH]cnc2c1sc(=S)n2-c1ccccc1
not listed: RPMI-8226 leukemia | RXF 393 renal
> 100 µM: all other assays above
